FAM = 5(6)-carboxyfluorescein
Tested on: NSC-34 cells (mouse motor neuron-like hybrid cell line)
Test: Cell membrane permeability of sample in NSC-34 cells by flow cytometry
Assay type: cell-based
Settings: for median fluorescence intensity (MFI): 10 μM sample (FAM concentration 10 μM), 0.5% DMSO, 20 hours at 37° C., 5% CO2, detector FL2
Procedure: In Example 1, a construct shown in Table 1 was prepared as a sample 1. Specifically, a construct formed of a synthetic peptide with the amino acid sequence set forth in SEQ ID No.: 1, in which an α-amino group of a lysine residue of an N-terminus is acetylated, and FAM (C21H12O7: 5(6)-carboxyfluorescein, molecular weight 376.3, excitation wavelength 495 nm, fluorescence wavelength 520 nm) corresponding to fluorescent dye bonded to the C-terminus of the synthetic peptide was prepared. The construct was diluted in dimethyl sulfoxide (DMSO) to prepare a sample solution 1 with a sample concentration of 2 mM.
As the eukaryotic cells, NSC-34 cells (mouse motor neuron-like hybrid cell line) were used and the cell membrane permeability of the sample 1 was evaluated. In Example 1, the prepared sample solution 1 was used, and in Example 2, the FAM solution was used.
The NSC-34 cell was cultured in 10% fetal bovine serum (FBS)-containing Dulbecco's modified Eagle's medium (DMEM (Cat No. 044-29765, manufactured by FUJIFILM Wako Pure Chemical Corporation)), which is a culture medium.
The NSC-34 cell that adhered to a culture plate was cleaned with PBS and then, a 0.25%-trypsin/EDTA solution was added thereto, and incubation was performed for three minutes at 37° C. After the incubation, the aforementioned 10% FBS-containing DMEM was added to deactivate trypsin and then, five-minute centrifugal separation was performed at 150×g to precipitate the cells. After the supernatant generated by the centrifugal separation was removed, the 10% FBS-containing DMEM was added to the precipitate (cell pellet) to prepare a cell suspension of about 1×10^5 cells/mL. The cell suspension was added by 1 mL to a well of a commercially available six-hole (well) plate (manufactured by AGC TECHNO GLASS Co., Ltd.) so as to seed the cell (about 1×10^5 cells/well). In addition, the 2 mM sample solution 1 was diluted with the 10% FBS-containing DMEM to prepare the sample solution 1 in which the concentration of the sample 1 was 20 μM. Then, 1 mL of the 20 μM sample solution 1 was added to the well (that is, so that the concentration of the sample 1 became […] and the DMSO concentration became 0.5% in the culture solution in the well). After that, the cell was incubated for 20 hours at 37° C. under a 5% CO2 condition.
After the 20-hour incubation, the culture supernatant was removed from the well and the cells in the well were cleaned twice with 1 mL of PBS. Next, 100 μL of the 0.25% trypsin/EDTA solution was added to the well and the incubation was performed for three minutes at 37° C. After the incubation, 900 µL of the 10% FBS-containing DMEM was added to the well to deactivate the trypsin. Subsequently, the cell suspension in the well was transferred to a tube and the cells were collected. After that, pre-washing was performed additionally, so that the cells remaining in the well were collected in the tube. This tube was subjected to five-minute centrifugal separation at 4° C. under a condition of 210×g. After the centrifugal separation, the supernatant was removed and the precipitate (cell pellet) was suspended (cleaned) with 1 mL of PBS, which was followed by the centrifugal separation under the same condition as that described above. […]
Regarding the obtained cells (cell pellet), the cell membrane permeability of the sample 1 was analyzed using a flow cytometer. […]

Row | Substance | median fluorescence intensity (MFI) | cell membrane permeability of carrier peptide fragment (concluded from the FAM construct (Example 1 vs Example 2)) | histogram position (flow cytometer, FIG. 1) (Example 1 compared to Example 2 (FAM), 20 hours) | cell membrane permeability (construct vs FAM alone, FIG. 1)
1 | 5(6)-carboxyfluorescein [Example 2, reference compound] | 7.58 | – | – | –
2 | SEQ ID No.: 1: carrier peptide fragment; synthetic peptide with amino acid sequence KFRAQRRW | – | achieves the cell membrane permeability | – | –
3 | Example 1: synthetic peptide of SEQ ID No.: 1 with N-terminal lysine α-amino group acetylated and FAM bonded to the C-terminus (Ac-KFRAQRRW-{FAM}) | 15.8 | – | shifted to the right side compared to the histogram according to Example 2 | higher cell membrane permeability than FAM alone

Source: patent publication US20260317374A1, “Carrier Peptide Fragment and Use Thereof” (TOAGOSEI CO., LTD., priority 2022, published 2026)
